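48-hour exposure; five concentrations; linearly interpolated endpoints. GI50 marks 50% less growth. TGI is the concentration that stops growth completely.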
Tests used:
Test in all cases: growth of human tumour cells (NCI), 48 h
[1] = system: RXF 393 renal
[2] = system: HCT-15 colon
[3] = system: HOP-62 NSCLC
[4] = system: PC-3 prostate
[5] = system: T-47D breast
[6] = system: SK-OV-3 ovarian
[7] = system: HCC-2998 colon
[8] = system: HT29 colon
[9] = system: SK-MEL-5 melanoma
[10] = system: CCRF-CEM leukemia
[11] = system: SK-MEL-2 melanoma
[12] = system: COLO 205 colon
[13] = system: 786-0 renal
[14] = system: NCI-H460 lung
[15] = system: MDA-MB-435
[16] = system: UO-31 renal
[17] = system: HS 578T breast
[18] = system: TK-10 renal
[19] = system: OVCAR-3 ovarian
[20] = system: NCI-H226 lung
[21] = system: ACHN renal
[22] = system: A498 renal
[23] = system: BT-549 breast
[24] = system: EKVX NSCLC
[25] = system: NCI/ADR-RES ovarian
[26] = system: NCI-H23 lung
[27] = system: SN12C renal
[28] = system: HCT-116 colon
[29] = system: NCI-H522 lung
[30] = system: U251 CNS
[31] = system: OVCAR-8 ovarian
[32] = system: MOLT-4 leukemia
[33] = system: SNB-19 CNS
[34] = system: HL-60(TB) leukemia
[35] = system: UACC-257 melanoma
[36] = system: MDA-MB-231 breast
[37] = system: IGROV1 ovarian
[38] = system: OVCAR-4 ovarian
[39] = system: SF-295 CNS
[40] = system: SW-620 colon
[41] = system: SF-268 CNS
[42] = system: SK-MEL-28 melanoma
[43] = system: HOP-92 NSCLC
[44] = system: SNB-75 CNS
[45] = system: A549 NSCLC
[46] = system: M14 melanoma
[47] = system: RPMI-8226 leukemia
[48] = system: KM12 colon
[49] = system: SF-539 CNS
[50] = system: SR leukemia
[51] = system: MALME-3M melanoma
[52] = system: MCF7 breast
[53] = system: DU-145 prostate
[54] = system: UACC-62 melanoma
[55] = system: K-562 leukemia
[56] = system: CAKI-1 renal
[57] = system: OVCAR-5 ovarian

## C[As](C)SCC(COC(=O)c1ccccc1)OC(=O)c1ccccc1 (stereo unspecified)
[1]
  GI50: < 16.9 nM
  TGI: 88.1 nM
[2]
  GI50: 35.7 nM
  TGI: 1400 nM
[3]
  GI50: 742 nM
  TGI: 1860 nM
[4]
  GI50: 358 nM
  TGI: 15.7 µM
[5]
  GI50: 45.2 nM
  TGI: 3.84 µM
[6]
  GI50: 3.16 µM
  TGI: 18.1 µM
[7]
  GI50: 104 nM
  TGI: 232 nM
[8]
  GI50: 302 nM
  TGI: 2260 nM
[9]
  GI50: 15 nM
  TGI: 67.8 nM
[10]
  GI50: 30.5 nM
  TGI: 759 nM
[11]
  GI50: 400 nM
  TGI: 2800 nM
[12]
  GI50: 51.4 nM
  TGI: 1880 nM
[13]
  GI50: 100 nM
  TGI: 556 nM
[14]
  GI50: 2210 nM
  TGI: 12.1 µM
[15]
  GI50: 19.1 nM
  TGI: 66.4 nM
[16]
  GI50: 763 nM
  TGI: 8.06 µM
[17]
  GI50: 627 nM
  TGI: 4.45 µM
[18]
  GI50: 15.9 nM
  TGI: 126 nM
[19]
  TGI: 23 nM
[20]
  GI50: 1090 nM
  TGI: 3.75 µM
[21]
  GI50: 36.9 nM
  TGI: 285 nM
[22]
  GI50: 135 nM
  TGI: 1150 nM
[23]
  GI50: 1010 nM
  TGI: 6.4 µM
[24]
  GI50: 1860 nM
  TGI: 10.7 µM
[25]
  GI50: 152 nM
  TGI: 367 nM
[26]
  GI50: 50 nM
  TGI: 125 nM
[27]
  GI50: 230 nM
  TGI: 1230 nM
[28]
  GI50: 29.2 nM
  TGI: 434 nM
[29]
  GI50: 83.6 nM
  TGI: 2920 nM
[30]
  GI50: 1710 nM
  TGI: 6.67 µM
[31]
  GI50: 225 nM
  TGI: 667 nM
[32]
  GI50: 13 nM
  TGI: 154 nM
[33]
  GI50: 3.63 µM
  TGI: 19.6 µM
[34]
  GI50: 16.1 nM
  TGI: 100 nM
[35]
  GI50: 66 nM
  TGI: 1510 nM
[36]
  GI50: 463 nM
  TGI: 2970 nM
[37]
  GI50: 918 nM
  TGI: 17.1 µM
[38]
  GI50: 1740 nM
  TGI: > 32.2 µM
[39]
  TGI: 1350 nM
[40]
  GI50: 31.4 nM
  TGI: 1660 nM
[41]
  GI50: 344 nM
  TGI: 4.42 µM
[42]
  GI50: 504 nM
  TGI: 17.4 µM
[43]
  GI50: 216 nM
  TGI: 1740 nM
[44]
  GI50: 968 nM
  TGI: 12.7 µM
[45]
  GI50: 1450 nM
  TGI: 11.3 µM
[46]
  GI50: 58.8 nM
  TGI: 1860 nM
[47]
  GI50: 26.4 nM
  TGI: 357 nM
[48]
  GI50: 384 nM
  TGI: 7.92 µM
[49]
  GI50: 271 nM
  TGI: 775 nM
[50]
  GI50: 24.1 nM
  TGI: 183 nM
[51]
  TGI: 34.5 nM
[52]
  GI50: 46.2 nM
  TGI: 312 nM
[53]
  GI50: 473 nM
  TGI: 4.17 µM
[54]
  GI50: 156 nM
  TGI: 1370 nM
[55]
  GI50: < 20.5 nM
  TGI: 1220 nM
[56]
  GI50: < 18.1 nM
  TGI: 49.9 nM
[57]
  GI50: 556 nM
  TGI: 2000 nM
